One assay has as its target UniProt P49841. Briefly: pIC50, competition of probe 3 labelling in live cells. Particulars: cell material: Jurkat cells.
In another assay the target is LYPLA2 (UniProt O95372). The assay is described as above. Particulars: cell material: Jurkat cells.
The target of another assay is PXMP2 (UniProt Q9NR77). The description is as above. Particulars: cell material: Jurkat cells.
In a further assay the target is MAST3 (UniProt O60307). Described as above. Particulars: cell material: Jurkat cells.
The target of a further assay is BLK (UniProt P51451). The assay is described as above. Particulars: cell material: Jurkat cells.
In another assay the target is TLK2 (UniProt Q86UE8). The assay is described as above. Particulars: cell material: Jurkat cells.
For a further assay, the target named is RABGGTB (UniProt P53611). The assay is described as above. The conditions noted are these: cell material: Jurkat cells.
A further assay concerns the target CASP6 (UniProt P55212). Described as above. The conditions noted are these: cell material: Jurkat cells.
The next assay addresses UniProt Q9P289. The description is as above. Particulars: cell material: Jurkat cells.
The next assay deals with CES3 (UniProt Q6UWW8). The assay is described as above. The conditions noted are these: cell material: Jurkat cells.
In another assay the target is IRAK1 (UniProt P51617). Described as above. Particulars: cell material: Jurkat cells.
The next assay concerns the target CLK1 (UniProt P49759). Described as above. The conditions noted are these: cell material: Jurkat cells.
Another assay has as its target UniProt Q15418. The description is as above. The conditions noted are these: cell material: Jurkat cells.
Another assay has as its target FER (UniProt P16591). Described as above. The conditions noted are these: cell material: Jurkat cells.
For another assay, the target named is T1, SNRK (UniProt Q9NRH2).
T1 sequence (whole entry): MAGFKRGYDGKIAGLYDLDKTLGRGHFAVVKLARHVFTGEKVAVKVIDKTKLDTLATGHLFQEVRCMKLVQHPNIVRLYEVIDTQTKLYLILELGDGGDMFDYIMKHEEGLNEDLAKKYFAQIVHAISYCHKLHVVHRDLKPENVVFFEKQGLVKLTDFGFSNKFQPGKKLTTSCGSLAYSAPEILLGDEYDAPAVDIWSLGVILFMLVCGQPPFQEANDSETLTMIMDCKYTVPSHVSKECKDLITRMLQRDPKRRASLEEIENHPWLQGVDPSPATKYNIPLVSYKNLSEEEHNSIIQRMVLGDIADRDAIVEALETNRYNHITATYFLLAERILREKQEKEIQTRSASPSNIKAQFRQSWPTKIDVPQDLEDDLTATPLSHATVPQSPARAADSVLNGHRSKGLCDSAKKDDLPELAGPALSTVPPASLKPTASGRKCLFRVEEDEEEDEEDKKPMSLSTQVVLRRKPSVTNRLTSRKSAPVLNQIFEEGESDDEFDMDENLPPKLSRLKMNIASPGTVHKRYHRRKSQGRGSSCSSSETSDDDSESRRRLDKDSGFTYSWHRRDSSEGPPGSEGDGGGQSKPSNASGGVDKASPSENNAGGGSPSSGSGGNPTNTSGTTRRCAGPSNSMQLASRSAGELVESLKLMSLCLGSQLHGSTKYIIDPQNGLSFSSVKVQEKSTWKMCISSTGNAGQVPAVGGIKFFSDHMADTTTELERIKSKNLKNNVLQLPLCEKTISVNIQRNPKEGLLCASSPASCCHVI
In words: pIC50, kinobeads binding competition. The essentials: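 Fold changes relative to vehicle, from biological duplicates, were fitted with logistic dose-response models in the R drc package to give pIC50. These fold changes came from TMT10 LC-MS/MS quantification of digested Kinobeads-bound proteins. Compound was applied at nine concentrations (top 30 μM) either to live Jurkat cells in 1:4 steps for 60 min at 37 °C before lysis, or to Jurkat lysate or a 1:1:1:1 HEK293/K-562/HepG2/placenta lysate mix in 1:5 steps for 60 min at 4 °C.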

The target in another assay is UniProt P49840. Briefly: pIC50, competition of probe 3 labelling in live cells. Particulars: cell material: Jurkat cells.
In the next assay the target is CDK4 (UniProt P11802). The description is as above. The conditions noted are these: cell material: Jurkat cells.
The target in the next assay is UniProt P45983. Described as above. Particulars: cell material: Jurkat cells.
The next assay addresses LIMK1 (UniProt P53667). The assay is described as above. Particulars: cell material: Jurkat cells.
The target in another assay is T2, MAP4K2 (UniProt Q12851).
T2 sequence (whole entry): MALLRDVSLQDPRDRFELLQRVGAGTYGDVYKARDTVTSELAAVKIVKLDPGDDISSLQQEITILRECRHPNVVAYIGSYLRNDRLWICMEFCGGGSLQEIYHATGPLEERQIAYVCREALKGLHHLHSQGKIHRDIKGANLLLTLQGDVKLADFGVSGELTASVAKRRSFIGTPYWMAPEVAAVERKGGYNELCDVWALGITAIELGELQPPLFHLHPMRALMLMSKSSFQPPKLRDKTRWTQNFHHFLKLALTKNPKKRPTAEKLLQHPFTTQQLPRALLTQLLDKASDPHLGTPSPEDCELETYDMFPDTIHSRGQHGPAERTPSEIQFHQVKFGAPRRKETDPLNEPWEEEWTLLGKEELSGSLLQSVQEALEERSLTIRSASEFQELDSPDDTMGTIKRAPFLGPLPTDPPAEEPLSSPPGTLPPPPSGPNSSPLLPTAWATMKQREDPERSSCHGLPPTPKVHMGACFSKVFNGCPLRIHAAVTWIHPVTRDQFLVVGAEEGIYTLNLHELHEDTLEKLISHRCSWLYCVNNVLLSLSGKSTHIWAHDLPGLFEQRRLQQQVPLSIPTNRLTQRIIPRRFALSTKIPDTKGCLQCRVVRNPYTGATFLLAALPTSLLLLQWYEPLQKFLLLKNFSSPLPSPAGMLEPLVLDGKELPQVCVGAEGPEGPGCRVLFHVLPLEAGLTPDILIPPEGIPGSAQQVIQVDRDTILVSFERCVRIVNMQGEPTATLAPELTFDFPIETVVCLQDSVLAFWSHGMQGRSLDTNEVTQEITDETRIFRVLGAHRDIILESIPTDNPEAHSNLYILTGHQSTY
The assay is described as above. The conditions noted are these: cell material: Jurkat cells.

A further assay concerns the target UniProt P51812. The assay is described as above. The conditions noted are these: cell material: Jurkat cells.

± gives the standard deviation of the averaged measurements.

Sequence of CES3 (Q6UWW8 whole entry): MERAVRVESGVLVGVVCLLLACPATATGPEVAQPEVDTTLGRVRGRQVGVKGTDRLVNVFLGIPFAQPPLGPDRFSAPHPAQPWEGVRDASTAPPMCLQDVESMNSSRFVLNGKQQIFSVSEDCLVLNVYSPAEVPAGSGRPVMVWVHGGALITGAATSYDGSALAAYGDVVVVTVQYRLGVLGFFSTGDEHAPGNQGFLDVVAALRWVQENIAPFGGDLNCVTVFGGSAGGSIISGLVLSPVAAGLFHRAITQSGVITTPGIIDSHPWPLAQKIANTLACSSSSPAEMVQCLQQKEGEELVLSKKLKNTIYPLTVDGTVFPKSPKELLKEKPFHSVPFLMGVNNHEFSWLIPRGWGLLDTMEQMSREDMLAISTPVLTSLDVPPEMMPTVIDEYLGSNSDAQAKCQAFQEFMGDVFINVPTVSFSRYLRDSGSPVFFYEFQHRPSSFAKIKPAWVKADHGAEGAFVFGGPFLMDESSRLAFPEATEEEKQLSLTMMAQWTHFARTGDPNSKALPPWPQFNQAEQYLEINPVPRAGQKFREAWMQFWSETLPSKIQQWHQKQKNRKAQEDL
Sequence of FER (P16591 whole entry, looked up): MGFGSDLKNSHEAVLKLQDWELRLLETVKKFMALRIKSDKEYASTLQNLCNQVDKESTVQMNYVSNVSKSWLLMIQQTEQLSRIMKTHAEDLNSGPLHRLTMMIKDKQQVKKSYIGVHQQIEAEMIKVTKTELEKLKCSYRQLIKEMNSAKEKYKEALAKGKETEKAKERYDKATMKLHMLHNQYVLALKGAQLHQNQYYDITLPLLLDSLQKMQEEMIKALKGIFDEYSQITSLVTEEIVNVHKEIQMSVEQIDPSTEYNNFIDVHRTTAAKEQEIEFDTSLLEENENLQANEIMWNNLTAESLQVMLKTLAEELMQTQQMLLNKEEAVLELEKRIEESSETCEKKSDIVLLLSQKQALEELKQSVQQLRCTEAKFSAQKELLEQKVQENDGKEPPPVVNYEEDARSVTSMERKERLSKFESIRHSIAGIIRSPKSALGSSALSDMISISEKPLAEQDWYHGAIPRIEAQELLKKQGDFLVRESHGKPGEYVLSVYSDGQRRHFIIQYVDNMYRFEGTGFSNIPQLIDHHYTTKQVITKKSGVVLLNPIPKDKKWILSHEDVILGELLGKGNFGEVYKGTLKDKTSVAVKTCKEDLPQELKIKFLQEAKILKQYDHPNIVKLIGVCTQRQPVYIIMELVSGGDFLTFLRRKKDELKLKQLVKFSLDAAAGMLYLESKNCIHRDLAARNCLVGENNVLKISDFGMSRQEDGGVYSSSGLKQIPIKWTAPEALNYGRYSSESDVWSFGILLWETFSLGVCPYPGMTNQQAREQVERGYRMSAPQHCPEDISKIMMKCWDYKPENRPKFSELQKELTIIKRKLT
Sequence of BLK (P51451 whole entry, looked up): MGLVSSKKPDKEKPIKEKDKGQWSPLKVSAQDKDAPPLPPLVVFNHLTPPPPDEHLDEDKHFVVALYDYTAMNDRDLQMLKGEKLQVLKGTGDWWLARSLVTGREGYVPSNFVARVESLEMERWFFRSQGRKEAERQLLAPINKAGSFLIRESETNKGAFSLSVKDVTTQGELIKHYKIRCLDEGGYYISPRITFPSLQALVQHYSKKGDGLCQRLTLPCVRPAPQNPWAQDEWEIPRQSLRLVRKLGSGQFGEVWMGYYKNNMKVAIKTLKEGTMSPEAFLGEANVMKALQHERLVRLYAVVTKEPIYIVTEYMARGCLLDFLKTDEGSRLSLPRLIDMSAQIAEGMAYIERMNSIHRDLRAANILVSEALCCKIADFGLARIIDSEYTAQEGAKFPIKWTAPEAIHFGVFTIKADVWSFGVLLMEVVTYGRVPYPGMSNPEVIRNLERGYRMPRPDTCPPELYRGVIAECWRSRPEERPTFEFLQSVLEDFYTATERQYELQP
Sequence of MAST3 (O60307 whole entry): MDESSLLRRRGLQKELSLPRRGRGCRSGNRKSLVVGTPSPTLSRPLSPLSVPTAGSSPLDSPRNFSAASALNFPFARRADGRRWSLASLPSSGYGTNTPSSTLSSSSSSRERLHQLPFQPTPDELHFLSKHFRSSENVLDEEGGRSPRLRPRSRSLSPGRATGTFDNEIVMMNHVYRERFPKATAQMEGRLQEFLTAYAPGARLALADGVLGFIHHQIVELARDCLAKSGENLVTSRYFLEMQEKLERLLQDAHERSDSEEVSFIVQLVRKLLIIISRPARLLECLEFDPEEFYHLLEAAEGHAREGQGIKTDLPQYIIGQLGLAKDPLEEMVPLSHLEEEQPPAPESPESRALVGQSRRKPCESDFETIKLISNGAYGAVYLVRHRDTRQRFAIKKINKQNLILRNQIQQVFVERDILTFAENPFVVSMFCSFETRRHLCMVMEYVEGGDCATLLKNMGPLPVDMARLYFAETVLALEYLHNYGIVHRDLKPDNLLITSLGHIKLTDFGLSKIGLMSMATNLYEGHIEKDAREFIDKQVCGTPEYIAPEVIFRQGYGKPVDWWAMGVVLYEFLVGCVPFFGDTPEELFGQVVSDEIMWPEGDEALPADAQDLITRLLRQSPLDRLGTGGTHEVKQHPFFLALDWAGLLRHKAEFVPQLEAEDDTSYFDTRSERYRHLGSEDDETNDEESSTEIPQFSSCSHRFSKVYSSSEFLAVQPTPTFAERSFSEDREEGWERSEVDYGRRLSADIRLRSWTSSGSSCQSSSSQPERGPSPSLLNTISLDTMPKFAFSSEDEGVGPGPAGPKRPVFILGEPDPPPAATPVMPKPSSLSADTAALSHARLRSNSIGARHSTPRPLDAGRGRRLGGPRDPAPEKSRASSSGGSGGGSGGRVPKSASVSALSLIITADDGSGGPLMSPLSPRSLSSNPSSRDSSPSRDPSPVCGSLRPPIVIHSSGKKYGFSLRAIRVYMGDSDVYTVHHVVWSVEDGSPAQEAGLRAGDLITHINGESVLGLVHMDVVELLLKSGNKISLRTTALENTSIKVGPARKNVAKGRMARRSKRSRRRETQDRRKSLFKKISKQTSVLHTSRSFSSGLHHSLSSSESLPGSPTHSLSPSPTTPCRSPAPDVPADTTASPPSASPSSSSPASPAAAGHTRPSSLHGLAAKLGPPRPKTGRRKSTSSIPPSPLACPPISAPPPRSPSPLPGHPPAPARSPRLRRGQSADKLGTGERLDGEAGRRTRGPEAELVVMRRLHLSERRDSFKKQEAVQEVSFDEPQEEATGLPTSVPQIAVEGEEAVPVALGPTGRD
Sequence of UniProt Q9P289 (Q9P289 whole entry, looked up): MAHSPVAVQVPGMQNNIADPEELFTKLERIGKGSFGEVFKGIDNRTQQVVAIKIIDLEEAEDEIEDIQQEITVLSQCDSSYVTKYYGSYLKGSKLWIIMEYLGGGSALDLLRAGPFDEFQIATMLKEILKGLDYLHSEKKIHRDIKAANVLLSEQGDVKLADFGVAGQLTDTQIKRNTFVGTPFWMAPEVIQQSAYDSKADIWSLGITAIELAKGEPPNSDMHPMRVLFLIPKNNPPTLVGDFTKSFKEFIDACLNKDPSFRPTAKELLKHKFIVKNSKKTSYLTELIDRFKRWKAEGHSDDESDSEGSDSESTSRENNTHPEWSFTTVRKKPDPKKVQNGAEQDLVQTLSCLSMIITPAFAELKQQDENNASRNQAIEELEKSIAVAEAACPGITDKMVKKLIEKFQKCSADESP
Sequence of IRAK1 (P51617 whole entry, looked up): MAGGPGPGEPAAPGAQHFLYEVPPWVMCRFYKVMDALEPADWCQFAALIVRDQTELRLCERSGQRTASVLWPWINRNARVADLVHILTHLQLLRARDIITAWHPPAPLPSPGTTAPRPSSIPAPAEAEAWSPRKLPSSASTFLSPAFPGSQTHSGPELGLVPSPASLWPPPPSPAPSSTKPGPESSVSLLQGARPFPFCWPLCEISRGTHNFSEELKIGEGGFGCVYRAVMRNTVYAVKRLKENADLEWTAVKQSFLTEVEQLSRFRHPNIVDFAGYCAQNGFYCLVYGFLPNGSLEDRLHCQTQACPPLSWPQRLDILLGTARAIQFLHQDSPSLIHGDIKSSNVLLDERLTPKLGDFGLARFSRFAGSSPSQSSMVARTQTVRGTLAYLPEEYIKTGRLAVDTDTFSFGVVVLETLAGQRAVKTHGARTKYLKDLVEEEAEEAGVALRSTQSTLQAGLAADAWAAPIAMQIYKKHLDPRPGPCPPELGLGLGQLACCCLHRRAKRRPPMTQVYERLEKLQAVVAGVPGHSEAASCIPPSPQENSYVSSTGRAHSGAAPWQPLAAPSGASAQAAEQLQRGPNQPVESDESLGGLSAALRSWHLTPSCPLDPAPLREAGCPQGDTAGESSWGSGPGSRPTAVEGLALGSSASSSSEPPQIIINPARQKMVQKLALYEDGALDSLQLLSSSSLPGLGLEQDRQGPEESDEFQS
Sequence of UniProt P45983 (P45983 whole entry): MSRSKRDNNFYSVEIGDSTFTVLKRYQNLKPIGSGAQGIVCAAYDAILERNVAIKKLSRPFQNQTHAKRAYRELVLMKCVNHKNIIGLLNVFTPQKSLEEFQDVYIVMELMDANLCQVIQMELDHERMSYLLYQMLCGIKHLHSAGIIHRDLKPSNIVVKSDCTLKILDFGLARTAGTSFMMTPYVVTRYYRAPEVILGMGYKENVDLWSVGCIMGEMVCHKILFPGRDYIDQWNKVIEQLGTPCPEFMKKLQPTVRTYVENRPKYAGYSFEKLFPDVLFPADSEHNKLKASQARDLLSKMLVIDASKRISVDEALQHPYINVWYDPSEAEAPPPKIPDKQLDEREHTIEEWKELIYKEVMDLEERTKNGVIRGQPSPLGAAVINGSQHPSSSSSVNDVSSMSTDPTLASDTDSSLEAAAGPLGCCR
Sequence of PXMP2 (Q9NR77 whole entry): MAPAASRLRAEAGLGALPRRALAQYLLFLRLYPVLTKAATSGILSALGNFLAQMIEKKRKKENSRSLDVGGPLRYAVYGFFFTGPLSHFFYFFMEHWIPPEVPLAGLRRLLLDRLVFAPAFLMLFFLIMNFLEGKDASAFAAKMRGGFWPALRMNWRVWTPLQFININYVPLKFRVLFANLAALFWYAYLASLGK

As usually defined, the pIC50 is −log10 of the IC50, conventionally taken in molar units. Low readings indicate a large IC50, high ones a small IC50. With `CCc1cnn2c(NCc3ccc[n+]([O-])c3)cc(N3CCCC[C@H]3CCO)nc12` [dinaciclib], the pIC50 on UniProt P49841 was 4.85 ± 0.27; on LYPLA2, < 4.52; on PXMP2, < 4.52; on MAST3, < 4.52; on BLK, < 4.52; at TLK2, < 4.52. Further, the pIC50 on RABGGTB, on CASP6, at UniProt Q9P289, at CES3, at IRAK1 and on CLK1 was < 4.52 in each case. Moreover, the pIC50 on UniProt Q15418 and at FER was < 4.52 each time.
Consider `O=C(NCCNC(=O)c1cc(Nc2cc(C3CC3)[nH]n2)nc(N2CCN(Cc3ccc(S(=O)(=O)F)cc3)CC2)n1)OC1CC/C=C/CCC1` (stereo not drawn), for which the pIC50 at SNRK (cell material: Jurkat lysate) was < 4.52.
Consider `CC#CC(=O)Nc1ccc2ncnc(Nc3cccc(Br)c3)c2c1` [EKI-785], for which the pIC50 at UniProt P49840, on CDK4, at UniProt P45983, on LIMK1, at MAP4K2 and on UniProt P51812 was < 4.52 in each case.
As for `C#CCNC(=O)c1cc(Nc2cc(C3CC3)[nH]n2)nc(N2CCN(Cc3ccc(S(=O)(=O)F)cc3)CC2)n1`, the values for the pIC50 on SNRK (cell material: Jurkat cells) and at SNRK (cell material: Jurkat lysate) were 5.47 and < 4.52, respectively.
